The subject of series [1] is CD11b expression in splenic B cells. Kind of series: CD11b expression in stimulated splenic B cells in the presence of TLR and NOD2 inhibitors. In kind it is cell-based, Balb/c mice.
The test system of series [2] is CD11b expression in splenic naive B cells. The series can be described thus: Stimulation of splenic naive B cells in vitro, CD11b expression by flow cytometry. In kind it is cell-based, Balb/c mice. Here is the method:
(§1) Splenic B cells were negatively sorted from the spleens of 8-week-old Balb/c mice using a B cell isolation kit (Miltenyi Biotec B.V. & Co. KG). The splenic B cells (concentration: 5×10^5/ml) were cultured in RPMI1640 medium, and 13 types of independent stimuli were each applied thereto. Anti-mouse IgM (15 μg/ml; Jackson ImmunoResearch Laboratories Inc.) • 2. Anti-mouse-CD40 (HM40-3, 500 ng/ml; manufactured by BioLegend, Inc.) • 3. BAFF (50 ng/ml; BioLegend, Inc.) • 4. Pam3CSK4 (1 μg/ml, InvivoGen) • 5. Poly I:C (25 ng/ml, InvivoGen) • 6. LPS (50 ng/ml, Sigma-Aldrich, Inc.) • 7. Flagellin (20 ng/ml, Sigma-Aldrich, Inc.) • 8. Imiquimod (R837, 5 ng/ml; InvivoGen) • 9. CpG (20 μg/ml, GeneDsign Inc.) • 10. […] Heat-killed S. enterica (10^8 CFU/ml) • 12. Heat-killed B. bifidum (10^7 CFU/ml) • 13. Heat-killed B. breve (10^7 CFU/ml)
For MDP stimulation, purified splenic B cells (5×10^5/ml) were cultured in RPMI1640 medium supplemented with N-acetylmuramyl-L-alanyl-D-isoglutamine hydrate (1 μg/ml; Sigma-Aldrich Inc.).

The next series has as its system OVA-specific IgA. The series can be described thus: Oral immunization with OVA plus adjuvant, ELISA of OVA-specific IgA in stools. In kind it is in vivo, mice. The settings on record: OVA 1 mg with or without adjuvant on Day 0 and Day 16, stools Day 21. As to the method:
Stools were collected on Day 21, and OVA-specific antibody measurement was performed by enzyme-linked immunosorbent assay (ELISA).
The stools were suspended in 10-times weight/volume (w/v) PBS. After performing centrifugation (8,000 g, 15 minutes), the supernatant was collected as a fecal extract. A plate was precoated with 1 mg/ml OVA overnight, followed by blocking with PBS containing 1% (w/v) bovine serum albumin at room temperature for 1 hour. Then, a serially diluted fecal extract was added to the plate, and the plate was incubated at room temperature for 1 hour. Relative avidity of IgA was detected using alkaline phosphatase-labeled goat anti-mouse IgA (manufactured by Southern Biotech). After incubation overnight at 4° C., optical density (OD) values at 405 nm were measured using TriStar Multimode Reader LB 942 (manufactured by Berthold Technologies GmbH & Co. KG).

For a further series, the system named is itgam (CD11b). Kind of series: qPCR analysis of itgam in B cells after stimulation. The format is cell-based, Balb/c mice. As to the method:
About 1×10^4 PP GC B cells (PNA^hiB220^+ cells) and about 1×10^4 non-GC PP B cells (PNA^loB220^+) were each sorted. RNAs were extracted from the isolated cells using NucleoSpin RNA XS (Takara Bio Inc.), and cDNAs were synthesized using GoScript (registered trademark) Reverse Transcriptase (Promega Corporation). Using KAPA SYBR (registered trademark) FAST qPCR Master Mix (2×) Kit (Kapa Biosystems, Inc.), real-time PCR was performed in triplicate on an optical 384-well PCR plate (F. Hoffmann-La Roche Ltd) using LightCycler 480 (F. Hoffmann-La Roche Ltd). Gene expression levels were normalized to the expression level of the housekeeping gene β-actin. The following primers were used for the analysis.
Splenic B cells were negatively sorted from the spleens of 8-week-old Balb/c mice using a B cell isolation kit (Miltenyi Biotec B.V. & Co. KG). The splenic B cells (concentration: 5×10^5/ml) were cultured in RPMI1640 medium, and 13 types of independent stimuli were each applied thereto. Anti-mouse IgM (15 μg/ml; Jackson ImmunoResearch Laboratories Inc.) • 2. Anti-mouse-CD40 (HM40-3, 500 ng/ml; manufactured by BioLegend, Inc.) • 3. BAFF (50 ng/ml; BioLegend, Inc.) • 4. Pam3CSK4 (1 μg/ml, InvivoGen) • 5. Poly I:C (25 ng/ml, InvivoGen) • 6. LPS (50 ng/ml, Sigma-Aldrich, Inc.) • 7. Flagellin (20 ng/ml, Sigma-Aldrich, Inc.) • 8. Imiquimod (R837, 5 ng/ml; InvivoGen) • 9. […]
(In general: Real-time PCR tracks product formation cycle by cycle.)

The test system of series [3] is PNAhighB220+ PP GC B cells. The series can be described thus: Oral administration of heat-killed bacteria or pam3CSK4 to WT mice, PP GC B cells after 2 days. The settings on record: within 2 days.
Description: Mice orally administered with 100 μl of PBS were prepared as controls. 2 days later, the PPs of these mice were excised, and B cells in the GCs were analyzed using Spectral Cell Analyzer SA3800 (Sony Biotechnology Inc.), as described above.
In the next series the test system is splenic naive B cells. Kind of series: B cell proliferation / number after in vitro stimulation. The format is cell-based, Balb/c mice. The settings on record: compared to B cells stimulated with anti-IgM, anti-CD40, BAFF, poly I:C, flagellin, imiquimod. Here is the method:
as §1

Another series relates to PP GC. Kind of series: In vivo imaging of transplanted iGB cells induced by pre-stimulation (entry into PP GC). Further details: species or system Balb/c mice. As to conditions: splenic naive B cells pre-stimulated 3 days, cultured on 40LB cells 4 days, injected i.v. As to the method: Then, 1×10^5 B220^+ B cells were isolated from the stimulated cells, and subsequently, the cells were seeded onto 40LB feeder cells supplemented with rIL-4 (1 ng/ml; BioLegend, Inc.) to induce iGB cells. As a control group, splenic naive B cells not subjected to stimulation were seeded onto the 40LB feeder cells supplemented with rIL-4 (1 ng/ml; BioLegend, Inc.). After culturing for 4 days, naive B-40LB cells, pam3CSK4-40LB cells, E. coli-40LB, IgM-40LB, and CpG-40LB cells of 3×10^5 iGB cells (B220^+) were isolated, labeled with CellTracker Orange CMTMR fluorescent dye (Invitrogen Corporation), and then separately injected intravenously into mice (Balb/c, 8 to 12 weeks old) together with 10 μg of AF488 anti-mouse MAdCAM-1 (BioLegend, Inc. mAb MECA-367) to identify HEV. Under anesthesia, 1 μg of AF647 anti-mouse IgA (Southern Biotech) was directly injected into the PPs of the same mice into which iGB cells were transferred, to stain the IgA^+ cells for GC identification. Localization of intravenously injected labeled iGB cells was observed using a microscope LSM880 (Carl Zeiss AG) and ZEN 2009 (Carl Zeiss AG) analysis software.

In another series the test system is TNF-α. The series can be described thus: Oral adjuvant with OVA as antigen, serum TNF-α ELISA. The settings on record: oral immunization with OVA 1 mg 3 times every 2 weeks, blood on second day after third immunization. In kind it is in vivo, C57BL/6 mice. As to the method:
Serum TNF-α levels were measured in accordance with the protocol of mouse TNF-α ELISA kit (Invitrogen Corporation, BMS607-3).
In general terms: In an ELISA, binding on a coated surface is turned into a signal by an enzyme label.

Take `CCOC(=O)C1=CCCC[C@H]1S(=O)(=O)Nc1ccc(F)cc1Cl` [TLR4 inhibitor]: in series [1] (inhibitor 1 μM, pam3CSK4 1 μg/ml, heat-killed E. coli 10^7 CFU/ml), the “proportion of CD11b+ B cells stimulated with pam3CSK4 and heat-killed E. coli when inhibitor was used” value was “did not increase”.

As for “N-acetylmuramyl-L-alanyl-D-isoglutamine hydrate [MDP]”, in series [2] (purified splenic B cells, MDP 1 μg/ml), the “induction of CD11b expression by NOD2 ligand” value is “did not induce”.

As to “OVA: ovalbumin, orally administered model antigen”, in the series with OVA-specific IgA, the “OVA-specific IgA in the stools” value was “did not increase”.

In the case of pam3CSK4, the “proportion of CD11b+ B cells in stimulated B cells” value in series [2] (splenic naive B cells, 3 days stimulation) came to 27.6%. Further, the “OVA-specific IgA in the stools” value in the series with OVA-specific IgA is recorded as “increased”. Moreover, the “expression of itgam (CD11b) in B cells” value in the series on itgam (CD11b) was “increased”. Besides, in series [3], the “number of PP GC B cells” value was “increased” and the “proportion of PP GC B cells” value was “increased”. Moreover, the “number of B cells after 3 days of culturing” value in the series on splenic naive B cells is reported as “significantly increased”. The “entry into GC of iGB cells stimulated in advance, after intravenous injection into mice” value in the series on PP GC is listed as “most of the cells entered GC”.

Regarding CpG-ODN1826, the “serum TNFα concentration” value in the series on TNF-α is “cause increase”.

In the case of `CN(CCc1nc2ccccc2n1CC(=O)Nc1ccc2c(c1)CCC2)C(=O)c1ccccc1` [NOD2 inhibitor], the “CD11b expression in B cells stimulated with pam3CSK4 and heat-killed E. coli with inhibitor” value in series [1] (NOD2 inhibitor 30 μM) was “strongly suppressed”.

B1: BAFF: B-cell activating factor, mimics interaction with DCs (protein, UniProt Q9WU72 127-309, looked up)
Tumor necrosis factor ligand …: AFQGPEETEQDVDLSAPPAPCLPGCRHSQHDDNGMNLRNIIQDCLQLIADSDTPTIRKGTYTFVPWLLSFKRGNALEEKENKIVVRQTGYFFIYSQVLYTDPIFAMGHVIQRKKVHVFGDELSLVTLFRCIQNMPKTLPNNSCYSAGIARLEEGDEIQLAIPRENAQISRNGDDTFFGALKLL
On to B1, for which, in series [2] (in vitro stimulation, 3 days culture, flow cytometry), the “induction of CD11b expression in naive splenic B cells” value was “did not induce”.

Values taken from patent publication US20250127889A1, “IMMUNOSTIMULATORY COMPOSITION” (Reiko SHINKURA, priority 2021, published 2025).
